Our source for the IC50 values is patent US20220112187A1, “PYRAZOLOPYRIDINE AMINE COMPOUNDS FOR THE TREATMENT OF AUTOIMMUNE DISEASE” (Hoffmann-La Roche Inc., priority 2018, published 2022).

This experiment addresses T1, human TLR7 (Homo sapiens, UniProt Q9NYK1).
T1 sequence (Q9NYK1 27-1049): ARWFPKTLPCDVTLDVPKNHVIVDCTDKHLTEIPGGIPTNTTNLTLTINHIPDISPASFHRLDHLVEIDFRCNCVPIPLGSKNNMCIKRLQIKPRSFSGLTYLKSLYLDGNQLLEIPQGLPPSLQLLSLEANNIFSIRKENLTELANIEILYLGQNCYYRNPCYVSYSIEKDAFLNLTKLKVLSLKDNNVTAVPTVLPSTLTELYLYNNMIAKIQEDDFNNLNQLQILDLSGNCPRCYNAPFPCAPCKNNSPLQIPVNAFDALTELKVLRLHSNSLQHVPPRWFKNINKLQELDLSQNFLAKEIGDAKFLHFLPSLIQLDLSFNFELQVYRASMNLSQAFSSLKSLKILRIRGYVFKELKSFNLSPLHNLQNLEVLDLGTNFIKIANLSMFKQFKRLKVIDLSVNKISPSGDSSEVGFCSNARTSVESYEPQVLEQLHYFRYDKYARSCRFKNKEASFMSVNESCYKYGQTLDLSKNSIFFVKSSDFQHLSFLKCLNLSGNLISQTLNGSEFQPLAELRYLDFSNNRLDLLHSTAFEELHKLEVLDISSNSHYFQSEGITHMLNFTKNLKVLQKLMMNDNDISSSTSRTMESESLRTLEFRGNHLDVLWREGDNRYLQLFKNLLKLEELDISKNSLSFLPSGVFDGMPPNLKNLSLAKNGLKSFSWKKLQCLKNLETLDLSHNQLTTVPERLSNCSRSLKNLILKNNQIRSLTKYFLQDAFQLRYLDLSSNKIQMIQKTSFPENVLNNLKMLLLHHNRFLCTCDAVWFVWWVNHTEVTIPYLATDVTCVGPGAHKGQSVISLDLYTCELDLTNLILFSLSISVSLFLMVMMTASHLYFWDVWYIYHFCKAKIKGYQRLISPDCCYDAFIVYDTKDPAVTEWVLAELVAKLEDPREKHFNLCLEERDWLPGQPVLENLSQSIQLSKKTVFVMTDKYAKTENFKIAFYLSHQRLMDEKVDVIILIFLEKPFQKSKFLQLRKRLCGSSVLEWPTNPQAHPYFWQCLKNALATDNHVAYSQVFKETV
In words: HEK293-Blue-hTLR-7 cells assay (SEAP reporter, R848 stimulation). In kind it is cell-based. The settings on record: HEK293-Blue-hTLR7 cells, R848 ligand, 20 hrs incubation. The text has this: A stable HEK293-Blue-hTLR-7 cell line was purchased from InvivoGen (Cat. #: hkb-htlr7, San Diego, Calif., USA). These cells were originally designed for studying the stimulation of human TLR7 by monitoring the activation of NF-κB. A SEAP (secreted embryonic alkaline phosphatase) reporter gene was placed under the control of the IFN-β minimal promoter fused to five NF-κB and AP-1-binding sites. The SEAP was induced by activating NF-κB and AP-1 via stimulating HEK-Blue hTLR7 cells with TLR7 ligands. Therefore the reporter expression was declined by TLR7 antagonist under the stimulation of a ligand, such as R848 (Resiquimod), for incubation of 20 hrs. The cell culture supernatant SEAP reporter activity was determined using QUANTI-Blue™ kit (Cat. #: rep-qb1, Invivogen, San Diego, Ca, USA) at a wavelength of 640 nm, a detection medium that turns purple or blue in the presence of alkaline phosphatase.
HEK293-Blue-hTLR7 cells were incubated at a density of 250,000˜450,000 cells/mL in a volume of 170 μL in a 96-well plate in Dulbecco's Modified Eagle's medium (DMEM) containing 4.5 g/L glucose, 50 U/mL penicillin, […], […], 2 mM L-glutamine, 10% (v/v) heat-inactivated fetal bovine serum with addition of 20 μL test compound in a serial dilution in the presence of final DMSO at 1% and 10 μL of 20 uM R848 in above DMEM, perform incubation under 37° C. in a CO2 incubator for 20 hrs. Then 20 μL of the supernatant from each well was incubated with 180 μL Quanti-blue substrate solution at 37° C. for 2 hrs and the absorbance was read at 620˜655 nm using a spectrophotometer. The signalling pathway that TLR7 activation leads to downstream NF-κB activation has been widely accepted, and therefore similar reporter assay was modified for evaluating TLR7 antagonist.

The term pIC50 denotes the negative decadic logarithm of the IC50, by convention in mol/L.

The structures appear in SMILES notation. pIC50: −log10 of the molar value.

Take `C[C@@H]1CN(c2ccc(C#N)n3nccc23)C[C@H](CN2CCC3(CCNC3)C2)O1` (stereo partly drawn) [Example 6, 4-[(2S,6R)-2-(2,7-diazaspiro[4.4]nonan-2-ylmethyl)-6-methyl-morpholin-4-yl]pyrazolo[1,5-a]pyridine-7-carbonitrile]: the pIC50 is 6.70. In the case of `C[C@@H]1CN(c2ccc(C#N)n3nccc23)C[C@H](CN2CCC(C)(N)CC2)O1` [Example 29, 4-[(2S,6R)-2-[(4-amino-4-methyl-1-piperidyl)methyl]-6-methyl-morpholin-4-yl]pyrazolo[1,5-a]pyridine-7-carbonitrile], the negative logarithm of the IC50 (pIC50) was 7.12. Then `C[C@@H]1CN(c2ccc(C#N)n3nccc23)C[C@H](CN2CC3(CCCNCC3)C2)O1` [Example 46, 4-[(2S,6R)-2-(2,8-diazaspiro[3.6]decan-2-ylmethyl)-6-methyl-morpholin-4-yl]pyrazolo[1,5-a]pyridine-7-carbonitrile], with 6.22; and `C[C@@H]1CN(c2ccc(C#N)n3nccc23)C[C@H](CN2CCC(N)C(F)(F)C2)O1` (stereo partly drawn) [Example 34, 4-[(2S,6R)-2-[(4-amino-3,3-difluoro-1-piperidyl)methyl]-6-methyl-morpholin-4-yl]pyrazolo[1,5-a]pyridine-7-carbonitrile], with 7.06; and `C[C@@H]1CN(c2ccc(C#N)n3nccc23)C[C@H](CN2CCNCC2Cc2ccccc2)O1` (stereo partly drawn) [Example 59, 4-[(2S,6R)-2-[(2-benzylpiperazin-1-yl)methyl]-6-methyl-morpholin-4-yl]pyrazolo[1,5-a]pyridine-7-carbonitrile], with 8.15.

Regarding `C[C@@H]1CN(c2ccc(C#N)n3nccc23)C[C@H](CN2CCC(N)(c3ccccc3)CC2)O1` [Example 73, 4-[(2S,6R)-2-[(4-amino-4-phenyl-1-piperidyl)methyl]-6-methyl-morpholin-4-yl]pyrazolo[1,5-a]pyridine-7-carbonitrile], the pIC50 is 6.82. As for `C[C@@H]1CN(c2ccc(C#N)n3nccc23)C[C@H](CN2CC3CCNCC32)O1` (stereo partly drawn) [Example 56, 4-[(2S,6R)-2-(3,8-diazabicyclo[4.2.0]octan-8-ylmethyl)-6-methyl-morpholin-4-yl]pyrazolo[1,5-a]pyridine-7-carbonitrile], the figure is 6.57; as for `C[C@@H]1CN(c2ccc(C#N)n3nccc23)C[C@H](CN2CCC(CN)CC2)O1` [Example 12, 4-[(2S,6R)-2-[[4-(aminomethyl)-1-piperidyl]methyl]-6-methyl-morpholin-4-yl]pyrazolo[1,5-a]pyridine-7-carbonitrile], 6.62; as for `C[C@@H]1CN(c2ccc(C#N)n3nccc23)C[C@H](CN2CCC3(CCCN3)CC2)O1` [Example 53, 4-[(2S,6R)-2-(1,8-diazaspiro[4.5]decan-8-ylmethyl)-6-methyl-morpholin-4-yl]pyrazolo[1,5-a]pyridine-7-carbonitrile], 6.64. As for `C[C@@H]1CN(c2ccc(C#N)n3nccc23)C[C@H](CN2C[C@H]3CC[C@@H](N(C)C)[C@H]3C2)O1` (racemic) [Example 75, 4-[(2S,6R)-2-[[4-(dimethylamino)-3,3a,4,5,6,6a-hexahydro-1H-cyclopenta[c]pyrrol-2-yl]methyl]-6-methyl-morpholin-4-yl]pyrazolo[1,5-a]pyridine-7-carbonitrile], the figure is 6.17; as for `C[C@@H]1CN(c2ccc(C#N)n3nccc23)C[C@H](CN2CCC3(CCNCC3)CC2)O1` [Example 3, 4-[(2S,6R)-2-(3,9-diazaspiro[5.5]undecan-3-ylmethyl)-6-methyl-morpholin-4-yl]pyrazolo[1,5-a]pyridine-7-carbonitrile], 6.62. On to `CC1CNCCN1C[C@H]1CN(c2ccc(C#N)n3nccc23)C[C@@H](C)O1` (single isomer, unassigned) [Example 50B], for which the pIC50 was 6.85. As for `C[C@@H]1CN(c2ccc(C#N)n3nccc23)C[C@H](CN2CCC3(CCCNC3)C2)O1` (stereo partly drawn) [Example 25, 4-[(2S,6R)-2-(2,9-diazaspiro[4.5]decan-2-ylmethyl)-6-methyl-morpholin-4-yl]pyrazolo[1,5-a]pyridine-7-carbonitrile], the figure is 6.96; as for `C[C@@H]1CN(c2ccc(C#N)n3nccc23)C[C@H](CN2CCN(C3CCNCC3)CC2Cc2ccccc2)O1` (stereo partly drawn) [Example 77, 4-[(2S,6R)-2-[[2-benzyl-4-(4-piperidyl)piperazin-1-yl]methyl]-6-methyl-morpholin-4-yl]pyrazolo[1,5-a]pyridine-7-carbonitrile], 6.80; as for `C[C@@H]1CN(c2ccc(C#N)n3nccc23)C[C@H](CN2CCN(C)CC2)O1` [Example 15, 4-[(2R,6S)-2-methyl-6-[(4-methylpiperazin-1-yl)methyl]morpholin-4-yl]pyrazolo[1,5-a]pyridine-7-carbonitrile], 7.11. `C[C@@H]1CN(c2ccc(C#N)n3nccc23)C[C@H](CN2C3CCC2CNC3)O1` [Example 43, 4-[(2S,6R)-2-(3,8-diazabicyclo[3.2.1]octan-8-ylmethyl)-6-methyl-morpholin-4-yl]pyrazolo[1,5-a]pyridine-7-carbonitrile]: the pIC50 was 7.23. As to `C[C@@H]1CN(c2ccc(C#N)n3nccc23)C[C@H](CN2CCC(N3CCN(C)CC3)CC2)O1` [Example 1, 4-[(2R,6S)-2-methyl-6-[[4-(4-methylpiperazin-1-yl)-1-piperidyl]methyl]morpholin-4-yl]pyrazolo[1,5-a]pyridine-7-carbonitrile], the pIC50 is 7.02. Regarding `C[C@@H]1CN(c2ccc(C#N)n3nccc23)C[C@H](CN2CC3(CC(N)C3)C2)O1` [Example 11, 4-[(2S,6R)-2-[(6-amino-2-azaspiro[3.3]heptan-2-yl)methyl]-6-methyl-morpholin-4-yl]pyrazolo[1,5-a]pyridine-7-carbonitrile], the pIC50 was 6.80. For the compound `C[C@@H]1CN(c2ccc(C#N)n3nccc23)C[C@H](CN2CCC3(CCCCN3)CC2)O1` [Example 47, 4-[(2S,6R)-2-(1,9-diazaspiro[5.5]undecan-9-ylmethyl)-6-methyl-morpholin-4-yl]pyrazolo[1,5-a]pyridine-7-carbonitrile], the pIC50 is 6.74. The compound `C[C@@H]1CN(c2ccc(C#N)n3nccc23)C[C@H](CN2CC3CNCCC32)O1` (stereo partly drawn) [Example 52, 4-[(2S,6R)-2-(3,7-diazabicyclo[4.2.0]octan-7-ylmethyl)-6-methyl-morpholin-4-yl]pyrazolo[1,5-a]pyridine-7-carbonitrile] showed a pIC50 of 7.04. Compound `C[C@@H]1CN(c2ccc(C#N)n3nccc23)C[C@H](CN2CCCC3(CNC3)C2)O1` [Example 33, 4-[(2S,6R)-2-(2,6-diazaspiro[3.5]nonan-6-ylmethyl)-6-methyl-morpholin-4-yl]pyrazolo[1,5-a]pyridine-7-carbonitrile] showed a pIC50 of 6.34. Then `C[C@@H]1CN(c2ccc(C#N)n3nccc23)C[C@H](CN2CC3CCCNC3C2)O1` (stereo partly drawn) [Example 45, 4-[(2S,6R)-2-(1,2,3,4,4a,5,7,7a-octahydropyrrolo[3,4-b]pyridin-6-ylmethyl)-6-methyl-morpholin-4-yl]pyrazolo[1,5-a]pyridine-7-carbonitrile], with 6.60.

On to `C[C@@H]1CN(c2ccc(C#N)n3nccc23)C[C@H](CN2C3COCC2CC(N)C3)O1` (stereo partly drawn) [Example 58, 4-[(2S,6R)-2-[(7-amino-3-oxa-9-azabicyclo[3.3.1]nonan-9-yl)methyl]-6-methyl-morpholin-4-yl]pyrazolo[1,5-a]pyridine-7-carbonitrile], for which the negative-log IC50 (pIC50) is 7.05.
